# Data taken from US6455540B1, “Methods of use of quinolone compounds against anaerobic pathogenic bacteria” (priority 1999, dated 2002).
# What was measured:
# Experiment in all cases: Agar dilution MIC
# Porphyromonas canoris = format: cell-based; settings: Porphyromonas canoris, 10 isolates
# [1] = system: Peptostreptococcus micros; format: cell-based; settings: 12 isolates
# [2] = system: Prevotella heparinolytica; format: cell-based; settings: 16 isolates
# Bacteroides ureolyticus = format: cell-based; settings: 17 isolates
# Prevotella bivia = format: cell-based; settings: 21 isolates
# Actinomyces israelii = format: cell-based; settings: 6 isolates
# Clostridium ramosum = format: cell-based; settings: 10 isolates
# Porphyromonas spp. = format: cell-based, Porphyromonas cangingivalis, cansulci, circumdentaria, levii; settings: Porphyromonas, read-out: Minimal Inhibitory Concentration 50% (MIC50); 11 isolates
# [3] = system: Clostridium clostridioforme; format: cell-based; settings: 11 isolates
# Clostridium inocuum = format: cell-based, Clostridium innocuum; settings: 11 isolates
# Porphyromonas gingivalis = format: cell-based; settings: Porphyromonas gingivalis, 13 isolates
# Fusobacterium varium = format: cell-based; settings: Fusobacterium varium, 17 isolates
# Porphyromonas macaccae = format: cell-based; settings: Porphyromonas, read-out: Minimal Inhibitory Concentration 50% (MIC50); 13 isolates
# [4] = system: Prevotella denticola/loeschii group; format: cell-based; settings: 6 isolates
# [5] = system: Anaerobiospirillum thomasii; format: cell-based; settings: 13 isolates
# [6] = system: Anaerobiospirillum succiniciproducens; format: cell-based; settings: 3 isolates
# [7] = system: Peptostreptococcus asaccharolyticus; format: cell-based; settings: Peptoniphilus asaccharolyticus, 11 isolates
# Veillonella spp. = format: cell-based; settings: 24 isolates
# [8] = system: Porphyromonas asaccharolyticus; format: cell-based, Porphyromonas asaccharolytica; settings: Porphyromonas, 11 isolates
# [9] = system: Peptostreptococcus prevotii; format: cell-based; settings: Anaerococcus prevotii, read-out: Minimal Inhibitory Concentration 50% (MIC50); 9 isolates
# [10] = system: Prevotella buccae-oris group; format: cell-based; settings: 22 isolates
# Fusobacterium russii = format: cell-based; settings: Fusobacterium russii; read-out: Minimal Inhibitory Concentration 90% (MIC90)
# Bacteroides tectum = format: cell-based; settings: Bacteroides pyogenes, 22 isolates
# Prevotella intermedia = format: cell-based; settings: 11 isolates
# [11] = system: Actinomyces odontolyticus; format: cell-based; settings: Schaalia odontolytica, 10 isolates
# [12] = system: Fusobacterium spp group 1; format: cell-based; settings: Fusobacterium, 19 isolates
# Clostridium dfficile = format: cell-based, Clostridium difficile; settings: 14 isolates
# Bacteroides gracilis = format: cell-based, Bacteroides gracilis (Campylobacter gracilis); settings: Campylobacter gracilis, 11 isolates
# [13] = system: Prevotella melaninogenica; format: cell-based; settings: Prevotella melaninogenica, 12 isolates
# [14] = system: Peptostreptococcus magnus; format: cell-based; settings: 13 isolates
# [15] = system: Fusobacterium spp. group 2; format: cell-based, Fusobacterium mortiferum, necrogenes, ulcerans; settings: Fusobacterium, 12 isolates
# [16] = read-out: Minimal Inhibitory Concentration 50% (MIC50)
# [17] = read-out: Minimal Inhibitory Concentration 90% (MIC90)
# [18] = Clostridium, read-out: Minimal Inhibitory Concentration 90% (MIC90)
compound,measurement,setting,value
Cc1ncc([N+](=O)[O-])n1CCO [Metronidazole],MIC50,Porphyromonas canoris; [16],0.25 µg/mL
same,MIC90,Porphyromonas canoris; [17],0.25 µg/mL
same,Minimal Inhibitory Concentration Range,[1],0.03 to 0.25 µg/mL
same,MIC50,"[1]; Parvimonas micra, read-out: Minimal Inhibitory Concentration 50% (MIC50)",0.25 µg/mL
same,MIC90,"[1]; Parvimonas micra, read-out: Minimal Inhibitory Concentration 90% (MIC90)",0.25 µg/mL
same,Minimal Inhibitory Concentration Range,[2],0.06 to 1 µg/mL
same,MIC90,"[2]; Prevotella heparinolytica, read-out: Minimal Inhibitory Concentration 90% (MIC90)",1 µg/mL
same,MIC50,"[2]; Prevotella heparinolytica, read-out: Minimal Inhibitory Concentration 50% (MIC50)",0.5 µg/mL
same,Minimal Inhibitory Concentration Range,Bacteroides ureolyticus,0.06 to 2 µg/mL
same,MIC90,"Bacteroides ureolyticus; Campylobacter ureolyticus, read-out: Minimal Inhibitory Concentration 90% (MIC90)",1 µg/mL
same,MIC50,"Bacteroides ureolyticus; Campylobacter ureolyticus, read-out: Minimal Inhibitory Concentration 50% (MIC50)",0.25 µg/mL
same,Minimal Inhibitory Concentration Range,Prevotella bivia,0.5 to 4 µg/mL
same,MIC90,"Prevotella bivia; Prevotella bivia, read-out: Minimal Inhibitory Concentration 90% (MIC90)",4 µg/mL
same,MIC50,"Prevotella bivia; Prevotella bivia, read-out: Minimal Inhibitory Concentration 50% (MIC50)",2 µg/mL
same,Minimal Inhibitory Concentration Range,Actinomyces israelii,1 to 32 µg/mL
same,MIC50,"Actinomyces israelii; Actinomyces israelii, read-out: Minimal Inhibitory Concentration 50% (MIC50)",4 µg/mL
same,Minimal Inhibitory Concentration Range,Clostridium ramosum,1 µg/mL
same,MIC50,"Clostridium ramosum; Thomasclavelia ramosa, read-out: Minimal Inhibitory Concentration 50% (MIC50)",1 µg/mL
same,MIC90,"Clostridium ramosum; Thomasclavelia ramosa, read-out: Minimal Inhibitory Concentration 90% (MIC90)",1 µg/mL
same,MIC50,Porphyromonas spp.,0.03 µg/mL
same,Minimal Inhibitory Concentration Range,[3],0.03 to 1 µg/mL
same,MIC90,[3]; [18],0.5 µg/mL
same,Minimal Inhibitory Concentration Range,Clostridium inocuum,0.5 to 2 µg/mL
same,MIC90,Clostridium inocuum; [18],1 µg/mL
same,MIC50,"Clostridium inocuum; Clostridium, read-out: Minimal Inhibitory Concentration 50% (MIC50)",0.5 µg/mL
same,MIC50,Porphyromonas gingivalis; [16],≤ 0.015 µg/mL
same,MIC90,Porphyromonas gingivalis; [17],0.03 µg/mL
same,MIC50,Fusobacterium varium; [16],1 µg/mL
same,MIC90,Fusobacterium varium; [17],2 µg/mL
same,MIC50,Porphyromonas macaccae,0.06 µg/mL
same,Minimal Inhibitory Concentration Range,[4],0.5 to 1 µg/mL
same,MIC50,"[4]; Prevotella denticola, read-out: Minimal Inhibitory Concentration 50% (MIC50)",1 µg/mL
same,Minimal Inhibitory Concentration Range,[5],1 to 4 µg/mL
same,MIC50,"[5]; Anaerobiospirillum thomasii, read-out: Minimal Inhibitory Concentration 50% (MIC50)",2 µg/mL
same,MIC90,"[5]; Anaerobiospirillum thomasii, read-out: Minimal Inhibitory Concentration 90% (MIC90)",4 µg/mL
same,Minimal Inhibitory Concentration Range,[6],4 to 8 µg/mL
same,MIC50,"[6]; Anaerobiospirillum succiniciproducens, read-out: Minimal Inhibitory Concentration 50% (MIC50)",8 µg/mL
same,MIC50,[7]; [16],0.5 µg/mL
same,MIC90,[7]; [17],1 µg/mL
same,Minimal Inhibitory Concentration Range,Veillonella spp.,0.25 to 2 µg/mL
same,MIC90,"Veillonella spp.; Veillonella, read-out: Minimal Inhibitory Concentration 90% (MIC90)",2 µg/mL
same,MIC50,"Veillonella spp.; Veillonella, read-out: Minimal Inhibitory Concentration 50% (MIC50)",1 µg/mL
same,MIC50,[8]; [16],≤ 0.015 µg/mL
same,MIC90,[8]; [17],≤ 0.015 µg/mL
same,MIC50,[9],0.5 µg/mL
same,Minimal Inhibitory Concentration Range,[10],0.5 to 4 µg/mL
same,MIC90,"[10]; Prevotella, read-out: Minimal Inhibitory Concentration 90% (MIC90)",2 µg/mL
same,MIC50,"[10]; Prevotella, read-out: Minimal Inhibitory Concentration 50% (MIC50)",1 µg/mL
same,MIC90,Fusobacterium russii,0.25 µg/mL
same,MIC90,Bacteroides tectum; [17],0.5 µg/mL
same,MIC50,Bacteroides tectum; [16],0.5 µg/mL
same,Minimal Inhibitory Concentration Range,Prevotella intermedia,0.03 to 1 µg/mL
same,MIC90,"Prevotella intermedia; Prevotella intermedia, read-out: Minimal Inhibitory Concentration 90% (MIC90)",1 µg/mL
same,MIC50,"Prevotella intermedia; Prevotella intermedia, read-out: Minimal Inhibitory Concentration 50% (MIC50)",0.5 µg/mL
same,MIC90,[11]; [17],32 µg/mL
same,MIC50,[11]; [16],16 µg/mL
same,MIC50,"[12]; GROUP1, read-out: Minimal Inhibitory Concentration 50% (MIC50)",0.25 µg/mL
same,MIC90,"[12]; GROUP1, read-out: Minimal Inhibitory Concentration 90% (MIC90)",4 µg/mL
same,Minimal Inhibitory Concentration Range,Clostridium dfficile,0.25 to 1 µg/mL
same,MIC90,Bacteroides gracilis; [17],> 32 µg/mL
same,MIC50,Bacteroides gracilis; [16],0.5 µg/mL
same,MIC90,[13]; [17],1 µg/mL
same,MIC50,[13]; [16],0.5 µg/mL
same,Minimal Inhibitory Concentration Range,[14],0.25 to 2 µg/mL
same,MIC50,"[14]; Finegoldia magna, read-out: Minimal Inhibitory Concentration 50% (MIC50)",0.5 µg/mL
same,MIC90,"[14]; Finegoldia magna, read-out: Minimal Inhibitory Concentration 90% (MIC90)",0.5 µg/mL
same,MIC50,[15]; [16],0.5 µg/mL
same,MIC90,[15]; [17],1 µg/mL
